Reference: patent US20050086710A1, “Method for generating recombinant human platelets for identifying therapeutic target proteins” (priority 2002, published 2005)

What was measured:
[1] = test system: megakaryocyte-derived platelets; experiment: FACS measurement of platelet surface markers after activation, megakaryocyte-derived platelets; assay type: cell-based, human; set-up: unit not given here; details: TRAP 25 μM or ADP 5 or 20 μM, 10 min
Method: (§1) Then, the mixture was spun down for 5 min. at 1800 rpm (in a tabletop centrifuge). The supernatant was discarded, 300-400 μL staining-buffer were added. FACS measurements were done immediately. For the following studies, antibodies against the following antigens were used: [table] The antibodies were coupled to the following fluorescence systems, where appropriate (either directly or via secondary antibodies) and measured by fluorescence-activated cell sorting (FACS): [table] Platelets which co-expressed the transgene GFP were gated for this marker by studying FITC fluorescence, and the same measurements were then exclusively related to this gate.

[2] = test system: modified platelets expressing GFP; experiment: FACS measurement of platelet surface markers after activation, modified platelets expressing GFP; assay type: cell-based, human; details: gated for GFP, TRAP 25 μM or ADP 5 or 20 μM
Text: (§2) Modified (E1/E3-deficient) flag-tagged adenoviruses for novel transgenes were generated that for expressing a transgene and green fluorescence protein (GFP) under control of two independent CMV promoters in a bi-cistronic system (He T C, Zhou S, da Costa L T, Yu J, Kinzler K W, Vogelstein B. A simplified system for generating modified adenoviruses. Proc Natl Acad Sci USA. 1998; 95:2509-14, purchased from Q Biogene, Heidelberg, Germany). As a control, Ad-GFP without further transgene was used. Large virus stocks were prepared and purified by centrifugation via cesium chloride density gradients. Adenoviral titers were determined using plaque titration and GFP expression titration in […] cells. • 1) Megakaryocytes were harvested at day 8-11 after isolation using a wide sterile single-use pipette and spun down in a 15 mL Falcon-tube at 1650 rpm for 8 min. • 2) The supernatant was discarded and the pellet resuspended in Opimem (at 4×10^5 cells/300 μL). • 3) Adenovirus was added to each well of a 24 well-plate for infection (multiplicity of infection (MOI) of 400 plaque forming units per cell). • 4) Cells were added and mixed by shaking, incubated for 30 min at 37° C. at 5% CO2, then • 5) spun down at 1000 rpm, 20° C. for 10 min.
• 1) Platelets were harvested by centrifugation at 1800 rpm for 1¼ min at 20° C.; the supernatant was diluted 1:1 with platelet wash buffer (1×PBS (w/o CA^2+ Mg^+) with 0.1% sodium azide (pH 7.2+/−0.2)). • 2) They were filtered through a 0.2 μm filter prior to use, stored at 4° C. and spun down at 1800 rpm for 5 min. • 3) The supernatant was discarded. ≈1 mL was left in the tube and washed again with staining buffer (1×PBS (w/o CA^2+Mg^+) with 0.1% sodium azide and 2% fetal bovine serum (FBS) and stored at 4° C. • 4) The supernatant was completely discarded. • 5) The pellet was resuspended in platelet-staining-buffer ([…]). • 6) 20 μL of the activators thrombin receptor activating peptide (TRAP; 25 μM), ADP (5 or 20 μM) or thrombin (2 U/ml) were added. 35 μL of the fibrinogen receptor binding peptide RGD or its negative control, RED, were added where indicated. • 7) The mixture was incubated for 10 min. at room temperature in the dark. • 8) Antibodys were added directly (in a volume of 7 μL each except for LIBS-FITC at 3.5 μL) and incubated for 20-30 min. at room temperature in the dark. • 9) 500-600 μL platelet staining buffer was added. Then, the mixture was spun down for 5 min. at 1800 rpm (in a tabletop centrifuge). The supernatant was discarded, 300-400 μL staining-buffer were added. FACS measurements were done immediately.
For the following studies, antibodies against the following antigens were used:
The antibodies were coupled to the following fluorescence systems, where appropriate (either directly or via secondary antibodies) and measured by fluorescence-activated cell sorting (FACS):
Platelets which co-expressed the transgene GFP were gated for this marker by studying FITC fluorescence, and the same measurements were then exclusively related to this gate.

[3] = test system: freshly isolated human platelets; experiment: FACS measurement of platelet surface markers after activation, freshly isolated platelets; assay type: cell-based; set-up: CD 41 (FACS) / CD 61 (FACS) / CD42b (FACS) / CD62P (FACS): unit not given here; details: TRAP 25 μM or ADP 5 or 20 μM, 10 min
Method: as §1, with “Freshly drawn blood from human volunteers was transferred into a Falcon tube and spun down for 20 min. at 1080 rpm at 20° C. […] The mixture was spun down for 10 min. at 2100 rpm at 20° C. The pellet was resuspended in staining buffer (1×PBS (w/o CA^2+ Mg^+) with 0.1% sodium azide and 2% fetal bovine serum) in a volume of 40 μl. […] Then,” for “Then,”, “(FACS): […]” for “(FACS): [table]”

[4] = test system: stem cell-derived platelets after infection with Ad-GFP; experiment: ELISA, release of PDGF, platelets after infection with Ad-GFP; assay type: cell-based; details: thrombin vs basal
Text: as §2, with “10 min. […]” for “10 min.”

[5] = test system: stem cell-derived platelets; experiment: ELISA, thrombin dependent release of PDGF, stem cell-derived platelets; assay type: cell-based
Method: (§3) ELISA Assays for β-thromboglobulin (Asserachrom β-TG, Roche Diagnostics, Mannheim, Germany) and platelet-derived growth factor (PDGF; PDGF-AB Immunoassay, Qiagen, Hilden, Germany) were performed according to the manufacturers' instructions. By using these assays, the thrombin dependent release of both mediators from platelets was assessed.

[6] = test system: freshly isolated platelets; experiment: ELISA, release of PDGF, freshly isolated platelets; assay type: cell-based, human
Method: (§4) Freshly drawn blood from human volunteers was transferred into a Falcon tube and spun down for 20 min. at 1080 rpm at 20° C. The supernatant yielded the PRP (platelet-rich-plasma) and was transferred to a new tube and diluted 1:4 with wash-buffer (1×PBS (w/o CA^2+ Mg^+) with 0.1% sodium azide, pH 7.2+/−0.2, filtered through a 0.2 μm filter prior to use and stored at 4° C.). The mixture was spun down for 10 min. at 2100 rpm at 20° C. The pellet was resuspended in staining buffer (1×PBS (w/o CA^2+ Mg^+) with 0.1% sodium azide and 2% fetal bovine serum) in a volume of 40 μl.
as §3

[7] = test system: stem cell-derived platelets after infection with Ad-GFP; experiment: ELISA, release of β-thromboglobulin, platelets after infection with Ad-GFP; assay type: cell-based; details: thrombin vs basal
Text: as §2, with “10 min. […]” for “10 min.”

[8] = test system: freshly isolated platelets; experiment: ELISA, release of β-thromboglobulin, freshly isolated platelets; assay type: cell-based, human; details: thrombin, amount not stated (basal 59±6)
Method: as §4, §3

[9] = test system: stem cell-derived platelets; experiment: ELISA, thrombin dependent release of β-thromboglobulin, stem cell-derived platelets; assay type: cell-based
Method: as §3

Row | Compound | CD 41 (FACS) [1] | CD42b (FACS) [1] | CD 61 (FACS) [1] | CD62P (FACS) [1] | CD 41 (FACS) [2] | CD42b (FACS) [2] | CD 61 (FACS) [2] | CD62P (FACS) [2] | PAC-1 (FACS) [2] | CD 41 (FACS) [3] | CD42b (FACS) [3] | CD 61 (FACS) [3] | CD62P (FACS) [3] | PAC-1 (FACS) [3] | further results
1 | Nc1ncnc2c1ncn2[C@@H]1O[C@H](COP(=O)(O)OP(=O)(O)O)[C@@H](O)[C@H]1O [ADP] | 258 ± 24 | 46 ± 25 | 76 ± 9.5 | 121 ± 61 | 216 ± 18 | 95 ± 63 | 333 ± 78 | 314 ± 153 | 198 ± 10 | 92 ± 37 | 58 ± 15 | 16 ± 6 | 75 ± 18 | 90 ± 26 | 
2 | thrombin |  |  |  |  |  |  |  |  |  |  |  |  |  |  | increase of PDGF release [4]: 123±7%; release of PDGF ([5]; 0.2 U thrombin (basal 280±95)): 590 ± 22 pg/mL; release of PDGF ([5]; 2 U thrombin (basal 280±95)): 610 pg/mL; release of PDGF ([6]; 0.2 U thrombin (basal 214±11)): 566 ± 10 pg/mL; release of PDGF ([6]; 1 U thrombin (basal 214±11)): 664 ± 12 pg/mL; increase in βTG release [7]: four-fold; Release of β-thromboglobulin [8]: 115±10 U/ml; Release of β-thromboglobulin ([9]; 0.2 U thrombin (basal 52±19)): 219±11 U/ml; Release of β-thromboglobulin ([9]; 2 U thrombin (basal 52±19)): 250±92 U/ml
3 | thrombin receptor activating peptide [TRAP] | 248 ± 23 | 75 ± 41 | 75 ± 14 | 138 ± 69 | 213 ± 34 | 81 ± 29 | 325 ± 73 | 299 ± 146 | 178 ± 41 | 99 ± 25 | 40 ± 2 | 19 ± 4.8 | 162 ± 50 | 122 ± 34 | 
